# Patent publication US10670605B2, “Cysteine reactive probes and uses thereof” (The Scripps Research Institute, priority 2015, dated 2020)
# Where a name gives a salt, the structure may show the parent alone.
# Key:
# Assay in all cases: isoTOP-ABPP of compound-treated primary human T cells
# Assay type in all cases: cell-based
# [1] = molecular target: Cys residues in primary human T cells (Homo sapiens, UniProt Q96FV9); details: THOC1 C49 (Q96FV9)
# [2] = molecular target: Cys residues in primary human T cells (Homo sapiens, UniProt Q9NWZ3); details: IRAK4 C13 (Q9NWZ3)
# [3] = molecular target: T1, Cys residues in primary human T cells (Homo sapiens, UniProt Q9Y2W6); details: TDRKH C109 (Q9Y2W6)
# T1 sequence (Q9Y2W6 1-561): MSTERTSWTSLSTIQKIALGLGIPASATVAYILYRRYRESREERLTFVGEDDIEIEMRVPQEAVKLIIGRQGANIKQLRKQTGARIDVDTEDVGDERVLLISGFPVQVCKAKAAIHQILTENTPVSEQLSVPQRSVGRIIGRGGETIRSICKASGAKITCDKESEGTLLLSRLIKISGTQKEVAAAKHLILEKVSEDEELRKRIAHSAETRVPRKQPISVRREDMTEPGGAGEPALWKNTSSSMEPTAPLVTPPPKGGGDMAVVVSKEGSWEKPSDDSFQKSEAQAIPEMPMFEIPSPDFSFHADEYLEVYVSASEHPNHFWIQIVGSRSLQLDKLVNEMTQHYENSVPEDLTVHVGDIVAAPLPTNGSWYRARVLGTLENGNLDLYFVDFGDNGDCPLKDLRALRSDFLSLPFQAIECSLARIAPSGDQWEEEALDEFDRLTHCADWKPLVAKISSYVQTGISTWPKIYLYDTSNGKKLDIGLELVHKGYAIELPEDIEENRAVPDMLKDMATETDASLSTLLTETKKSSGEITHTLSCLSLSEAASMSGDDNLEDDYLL
# [4] = molecular target: Cys residues in primary human T cells (Homo sapiens, UniProt O14933); details: UBE2L6 C98 (O14933)
# Chain of Cys residues in primary human T cells (Homo sapiens, UniProt O14933) (O14933 whole entry): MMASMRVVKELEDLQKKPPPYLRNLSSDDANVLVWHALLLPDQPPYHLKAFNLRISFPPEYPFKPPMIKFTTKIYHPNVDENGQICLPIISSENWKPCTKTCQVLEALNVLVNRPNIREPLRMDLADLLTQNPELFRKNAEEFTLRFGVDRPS
# [5] = molecular target: T2, Cys residues in primary human T cells (Homo sapiens, UniProt A6NDG6); details: PGP C297 (A6NDG6)
# T2 sequence (A6NDG6 1-321): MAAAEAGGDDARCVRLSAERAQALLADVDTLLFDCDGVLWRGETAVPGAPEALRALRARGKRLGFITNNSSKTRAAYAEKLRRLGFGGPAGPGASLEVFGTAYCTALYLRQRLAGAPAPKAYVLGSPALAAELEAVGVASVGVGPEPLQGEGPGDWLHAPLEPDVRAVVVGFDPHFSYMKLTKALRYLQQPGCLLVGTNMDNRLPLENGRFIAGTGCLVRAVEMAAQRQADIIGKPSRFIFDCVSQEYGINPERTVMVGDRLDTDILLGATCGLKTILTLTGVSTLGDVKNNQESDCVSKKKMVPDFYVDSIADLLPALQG
# [6] = molecular target: Cys residues in primary human T cells (Homo sapiens, UniProt Q15005); details: SPCS2 C17 (Q15005)
# Chain of Cys residues in primary human T cells (Homo sapiens, UniProt Q15005) (Q15005 whole entry): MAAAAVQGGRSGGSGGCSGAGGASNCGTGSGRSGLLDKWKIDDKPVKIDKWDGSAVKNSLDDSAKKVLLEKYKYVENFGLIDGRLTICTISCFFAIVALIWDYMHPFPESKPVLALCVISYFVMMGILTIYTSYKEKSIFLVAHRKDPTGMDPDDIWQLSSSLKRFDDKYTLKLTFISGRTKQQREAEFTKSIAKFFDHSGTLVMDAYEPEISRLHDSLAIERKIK
# [7] = molecular target: Cys residues in primary human T cells (Homo sapiens, UniProt Q5T4S7); details: UBR4 C2554 (Q5T4S7)
# [8] = molecular target: T3, Cys residues in primary human T cells (Homo sapiens, UniProt O95081); details: AGFG2 C39 (O95081)
# T3 sequence (O95081 1-481): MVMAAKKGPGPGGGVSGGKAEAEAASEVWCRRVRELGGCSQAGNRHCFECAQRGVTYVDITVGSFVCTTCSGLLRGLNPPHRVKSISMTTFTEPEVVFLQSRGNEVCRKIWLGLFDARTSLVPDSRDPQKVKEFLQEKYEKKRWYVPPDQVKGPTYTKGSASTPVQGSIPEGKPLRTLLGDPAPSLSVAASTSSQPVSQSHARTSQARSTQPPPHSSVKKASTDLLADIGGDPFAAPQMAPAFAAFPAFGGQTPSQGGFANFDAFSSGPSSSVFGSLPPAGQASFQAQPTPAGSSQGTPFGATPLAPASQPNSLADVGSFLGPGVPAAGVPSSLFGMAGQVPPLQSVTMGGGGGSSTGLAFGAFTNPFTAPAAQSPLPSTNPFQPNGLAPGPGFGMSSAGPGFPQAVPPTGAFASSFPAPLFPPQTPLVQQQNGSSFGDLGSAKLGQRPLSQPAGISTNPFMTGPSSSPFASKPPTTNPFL
# [9] = molecular target: Cys residues in primary human T cells (Homo sapiens, UniProt P31153)
# Chain of Cys residues in primary human T cells (Homo sapiens, UniProt P31153) (P31153 whole entry): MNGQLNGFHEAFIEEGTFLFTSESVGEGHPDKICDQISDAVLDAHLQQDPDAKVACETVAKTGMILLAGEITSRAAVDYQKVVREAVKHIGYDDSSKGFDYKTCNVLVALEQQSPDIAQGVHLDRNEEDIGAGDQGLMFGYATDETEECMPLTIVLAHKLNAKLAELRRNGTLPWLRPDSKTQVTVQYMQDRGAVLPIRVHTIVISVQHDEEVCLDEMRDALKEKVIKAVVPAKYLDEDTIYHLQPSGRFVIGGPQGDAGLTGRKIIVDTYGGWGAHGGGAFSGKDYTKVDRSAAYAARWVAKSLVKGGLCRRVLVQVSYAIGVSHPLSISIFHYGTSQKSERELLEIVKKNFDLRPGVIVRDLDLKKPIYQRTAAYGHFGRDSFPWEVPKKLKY
# [10] = molecular target: Cys residues in primary human T cells (Homo sapiens, UniProt Q7Z6Z7); details: HUWE1 C3372 (Q7Z6Z7)
# Chain of Cys residues in primary human T cells (Homo sapiens, UniProt Q7Z6Z7) (Q7Z6Z7 whole entry): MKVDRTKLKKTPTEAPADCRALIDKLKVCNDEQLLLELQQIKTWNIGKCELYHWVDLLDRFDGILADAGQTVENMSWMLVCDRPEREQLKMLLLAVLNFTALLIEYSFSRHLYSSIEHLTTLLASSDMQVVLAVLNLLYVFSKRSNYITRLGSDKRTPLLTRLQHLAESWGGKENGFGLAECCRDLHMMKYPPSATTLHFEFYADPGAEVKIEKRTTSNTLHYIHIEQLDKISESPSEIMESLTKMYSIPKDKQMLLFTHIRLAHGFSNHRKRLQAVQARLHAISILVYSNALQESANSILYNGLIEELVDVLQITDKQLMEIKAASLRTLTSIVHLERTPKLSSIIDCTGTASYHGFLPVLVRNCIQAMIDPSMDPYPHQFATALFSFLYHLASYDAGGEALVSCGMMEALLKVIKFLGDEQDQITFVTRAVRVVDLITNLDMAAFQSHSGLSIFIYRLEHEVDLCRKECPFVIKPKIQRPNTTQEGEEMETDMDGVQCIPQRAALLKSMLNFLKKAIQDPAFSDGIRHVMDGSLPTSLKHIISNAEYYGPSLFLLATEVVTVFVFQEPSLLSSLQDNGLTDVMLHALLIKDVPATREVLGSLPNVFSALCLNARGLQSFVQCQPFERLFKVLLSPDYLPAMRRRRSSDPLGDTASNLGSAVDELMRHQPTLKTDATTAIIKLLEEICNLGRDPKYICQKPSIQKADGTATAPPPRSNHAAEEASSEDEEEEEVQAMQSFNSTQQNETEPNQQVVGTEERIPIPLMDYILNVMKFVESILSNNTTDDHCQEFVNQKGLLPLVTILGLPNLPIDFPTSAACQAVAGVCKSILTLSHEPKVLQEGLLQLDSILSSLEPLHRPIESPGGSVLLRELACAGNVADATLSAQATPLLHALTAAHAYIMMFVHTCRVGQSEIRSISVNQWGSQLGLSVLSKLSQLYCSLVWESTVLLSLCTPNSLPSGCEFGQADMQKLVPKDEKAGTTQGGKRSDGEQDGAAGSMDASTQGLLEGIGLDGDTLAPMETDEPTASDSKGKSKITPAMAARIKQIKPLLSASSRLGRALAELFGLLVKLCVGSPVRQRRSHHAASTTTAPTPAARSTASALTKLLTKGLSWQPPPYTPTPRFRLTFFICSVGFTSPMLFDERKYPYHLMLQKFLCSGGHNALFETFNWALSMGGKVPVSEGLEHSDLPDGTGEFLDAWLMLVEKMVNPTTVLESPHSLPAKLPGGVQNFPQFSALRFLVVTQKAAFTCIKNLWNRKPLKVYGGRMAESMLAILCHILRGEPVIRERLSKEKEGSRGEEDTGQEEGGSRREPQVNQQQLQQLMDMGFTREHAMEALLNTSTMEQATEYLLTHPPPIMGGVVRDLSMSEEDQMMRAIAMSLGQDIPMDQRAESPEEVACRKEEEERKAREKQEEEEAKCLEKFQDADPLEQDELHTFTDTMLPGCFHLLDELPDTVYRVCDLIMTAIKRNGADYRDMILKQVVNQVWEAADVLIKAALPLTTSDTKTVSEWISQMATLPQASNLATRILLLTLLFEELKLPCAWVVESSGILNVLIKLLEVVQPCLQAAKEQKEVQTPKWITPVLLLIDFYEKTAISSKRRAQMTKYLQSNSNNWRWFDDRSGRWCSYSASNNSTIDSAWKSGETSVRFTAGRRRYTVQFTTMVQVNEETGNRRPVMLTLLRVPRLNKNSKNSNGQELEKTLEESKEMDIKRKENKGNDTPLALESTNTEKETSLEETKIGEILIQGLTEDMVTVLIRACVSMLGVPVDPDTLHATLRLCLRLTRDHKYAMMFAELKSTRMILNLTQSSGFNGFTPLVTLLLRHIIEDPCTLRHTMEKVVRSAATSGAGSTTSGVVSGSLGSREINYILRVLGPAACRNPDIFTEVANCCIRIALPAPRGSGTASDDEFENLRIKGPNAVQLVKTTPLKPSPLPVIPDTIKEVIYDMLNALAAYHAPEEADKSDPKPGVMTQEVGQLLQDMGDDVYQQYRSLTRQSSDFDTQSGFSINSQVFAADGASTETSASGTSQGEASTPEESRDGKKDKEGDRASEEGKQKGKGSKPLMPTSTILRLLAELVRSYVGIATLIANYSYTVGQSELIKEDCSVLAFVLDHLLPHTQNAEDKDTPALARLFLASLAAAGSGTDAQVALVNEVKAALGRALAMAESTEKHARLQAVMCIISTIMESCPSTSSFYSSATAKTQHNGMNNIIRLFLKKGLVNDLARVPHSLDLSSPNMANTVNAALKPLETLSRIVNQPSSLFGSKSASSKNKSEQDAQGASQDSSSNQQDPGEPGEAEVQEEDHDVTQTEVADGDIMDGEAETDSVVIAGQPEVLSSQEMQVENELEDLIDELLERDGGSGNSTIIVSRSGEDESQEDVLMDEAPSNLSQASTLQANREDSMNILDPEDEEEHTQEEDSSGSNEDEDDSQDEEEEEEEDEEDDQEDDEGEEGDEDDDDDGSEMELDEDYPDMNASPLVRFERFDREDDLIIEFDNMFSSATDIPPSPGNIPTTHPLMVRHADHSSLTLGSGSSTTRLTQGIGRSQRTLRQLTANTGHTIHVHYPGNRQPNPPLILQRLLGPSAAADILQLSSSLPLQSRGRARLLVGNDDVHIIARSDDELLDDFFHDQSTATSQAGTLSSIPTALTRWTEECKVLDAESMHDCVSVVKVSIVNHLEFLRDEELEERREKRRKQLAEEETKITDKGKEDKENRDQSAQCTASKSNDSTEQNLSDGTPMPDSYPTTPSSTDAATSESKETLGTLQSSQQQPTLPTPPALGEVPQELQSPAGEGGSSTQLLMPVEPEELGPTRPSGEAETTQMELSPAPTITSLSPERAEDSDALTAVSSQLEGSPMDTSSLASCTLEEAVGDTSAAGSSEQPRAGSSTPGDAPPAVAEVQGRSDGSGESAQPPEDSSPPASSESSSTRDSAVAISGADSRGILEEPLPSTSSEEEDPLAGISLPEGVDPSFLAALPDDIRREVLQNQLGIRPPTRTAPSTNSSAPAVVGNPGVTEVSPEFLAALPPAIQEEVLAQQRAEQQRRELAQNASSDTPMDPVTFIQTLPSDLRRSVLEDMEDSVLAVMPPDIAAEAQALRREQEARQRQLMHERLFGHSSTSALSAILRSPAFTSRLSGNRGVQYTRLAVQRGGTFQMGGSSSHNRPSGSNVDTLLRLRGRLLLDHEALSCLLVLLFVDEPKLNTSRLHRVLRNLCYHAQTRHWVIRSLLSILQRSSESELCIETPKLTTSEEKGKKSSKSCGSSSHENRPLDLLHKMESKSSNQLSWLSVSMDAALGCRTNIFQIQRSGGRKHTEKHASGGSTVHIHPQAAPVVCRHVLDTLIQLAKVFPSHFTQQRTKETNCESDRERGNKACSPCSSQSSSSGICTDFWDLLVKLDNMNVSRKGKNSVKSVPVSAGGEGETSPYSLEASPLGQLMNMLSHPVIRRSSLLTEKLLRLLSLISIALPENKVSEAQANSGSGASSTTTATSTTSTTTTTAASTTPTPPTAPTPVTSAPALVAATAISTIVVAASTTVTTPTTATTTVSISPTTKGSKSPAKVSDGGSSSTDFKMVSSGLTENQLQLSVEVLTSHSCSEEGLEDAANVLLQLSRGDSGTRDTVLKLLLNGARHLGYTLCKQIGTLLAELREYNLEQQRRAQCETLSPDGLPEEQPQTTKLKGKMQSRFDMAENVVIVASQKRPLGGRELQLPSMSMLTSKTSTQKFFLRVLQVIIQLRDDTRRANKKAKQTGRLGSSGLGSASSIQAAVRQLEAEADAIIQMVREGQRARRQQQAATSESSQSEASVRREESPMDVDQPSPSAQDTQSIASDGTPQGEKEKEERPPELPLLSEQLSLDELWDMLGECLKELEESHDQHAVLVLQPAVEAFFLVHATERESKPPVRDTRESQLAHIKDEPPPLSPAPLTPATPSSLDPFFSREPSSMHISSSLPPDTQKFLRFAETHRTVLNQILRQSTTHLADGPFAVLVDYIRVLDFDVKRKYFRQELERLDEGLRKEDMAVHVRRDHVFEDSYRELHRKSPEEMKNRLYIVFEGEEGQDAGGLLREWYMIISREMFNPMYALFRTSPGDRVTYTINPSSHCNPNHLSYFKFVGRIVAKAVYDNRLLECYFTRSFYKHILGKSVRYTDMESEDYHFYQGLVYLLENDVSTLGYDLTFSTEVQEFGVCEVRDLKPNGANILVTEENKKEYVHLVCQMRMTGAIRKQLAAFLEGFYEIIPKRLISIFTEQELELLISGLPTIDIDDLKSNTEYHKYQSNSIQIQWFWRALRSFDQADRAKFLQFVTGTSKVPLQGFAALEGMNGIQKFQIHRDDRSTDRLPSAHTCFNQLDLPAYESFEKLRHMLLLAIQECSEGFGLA
smiles,measurement,setting,value
"COC(=O)/C=C/C(=O)OC [DMF, dimethyl fumarate]",R value (DMSO/DMF),[1]; DMF 50 μM 1h,3.93
same,R value (DMSO/DMF),[1]; DMF 50 μM 2h,5.7
same,R value (DMSO/DMF),[2]; DMF 50 μM 1h,8.3
same,R value (DMSO/DMF),[2]; DMF 50 μM 4h,20
same,R value (DMSO/DMF),[3]; DMF 10 μM 4h,2.34
same,R value (DMSO/DMF),[3]; DMF 50 μM 1h,4
same,R value (DMSO/DMF),[3]; DMF 50 μM 2h,20
same,R value (DMSO/DMF),[3]; DMF 50 μM 4h,20
same,R value (DMSO/DMF),[4]; DMF 10 μM 4h,1.49
same,R value (DMSO/DMF),[4]; DMF 50 μM 1h,2.44
same,R value (DMSO/DMF),[4]; DMF 50 μM 2h,2.92
same,R value (DMSO/DMF),[4]; DMF 50 μM 4h,12.55
same,R value (DMSO/DMF),[5]; DMF 50 μM 1h,3.06
same,R value (DMSO/DMF),[5]; DMF 50 μM 2h,4.21
same,R value (DMSO/DMF),[5]; DMF 50 μM 4h,10.77
same,R value (DMSO/DMF),[6]; DMF 10 μM 4h,1.42
same,R value (DMSO/DMF),[6]; DMF 25 μM 4h,2.41
same,R value (DMSO/DMF),[6]; DMF 50 μM 1h,2.25
same,R value (DMSO/DMF),[6]; DMF 50 μM 2h,3.86
same,R value (DMSO/DMF),[6]; DMF 50 μM 4h,5.09
same,R value (DMSO/DMF),[7]; DMF 10 μM 4h,1.52
same,R value (DMSO/DMF),[7]; DMF 50 μM 1h,1.6
same,R value (DMSO/DMF),[7]; DMF 50 μM 2h,2.1
same,R value (DMSO/DMF),[7]; DMF 50 μM 4h,4.63
same,R value (DMSO/DMF),[8]; DMF 10 μM 4h,1.42
same,R value (DMSO/DMF),[8]; DMF 50 μM 2h,3.85
same,R value (DMSO/DMF),[8]; DMF 50 μM 4h,6.39
same,R value (DMSO/DMF),"[9]; MAT2A C56 (P31153), DMF 50 μM 4h",4.17
same,R value (DMSO/DMF),"[9]; MAT2A C104 (P31153), DMF 10 μM 4h",1.5
same,R value (DMSO/DMF),"[9]; MAT2A C104 (P31153), DMF 50 μM 4h",4.11
same,R value (DMSO/DMF),[10]; DMF 10 μM 4h,1.58
same,R value (DMSO/DMF),[10]; DMF 50 μM 1h,2.28
same,R value (DMSO/DMF),[10]; DMF 50 μM 2h,4.43
same,R value (DMSO/DMF),[10]; DMF 50 μM 4h,10.48
